Assays:
[1] = Plasma calcitonin and calcium after subcutaneous administration; format: in vivo, mice; conditions: s.c., 125 μg/kg in 10% Liposyn II
Experimental: Both CT and CT-P were iodinated with ^125 I using chloramine T method. ^125 I-CT or ^125 I-CT-P was injected s.c. into mice at a dose of 125 μg/kg in 10% Liposyn® II (Abbott). Groups of three mice were sacrificed at different time points. The levels of calcium in the blood samples were determined by using a commercial calcium diagnostic kit (Sigma Chemical Co.). The plasma from each mouse was isolated and treated with 5% trichloroacetic acid (TCA) in an ice bath. The radioactivity in the hs TCA precipitates were considered as the intact CT in the plasma.

[2] = Gastro-intestinal absorption and calcium-lowering effect after oral administration; format: in vivo, CF mice; conditions: 100 μg/kg in PBS, one hour, CT-RIA, N = 3, S.D.
Experimental: CT and CT-P were orally administered to CF mice using a gavaging needle at a dose of 100 μg/kg in PBS. The mice, three of each group, were sacrificed 1 hour after the treatment, and the plasma was isolated from their blood. The levels of CT and calcium were measured by using commercial CT-RIA (Phoenix) and calcium diagnostic (Sigma Chemical Co.) kits, respectively. […] Furthermore, the level of calcium in plasma at 1 hour was lower in CT-P treated mice than that in CT treated mice, which was consistent with the finding in CT levels. Because the crossreactivity of CT-P to the anti-CT antibody is only about 10%, the actual concentration of total CT in the plasma of CT-P treated mice could be even higher than the value presented in Table 5.

[3] = tested on: Brattleboro rats with hereditary hypothalamic diabetes insipidus; assay: Anti-diuretic effects in rats with hereditary hypothalamic diabetes insipidus, subcutaneous; format: in vivo; conditions: s.c., 3.3 μg/kg in 10% Liposyn II, FIG. 7
Experimental: Brattleboro rats, which carry the hereditary disease of hypothalamic diabetes insipidus, were used to compare the effects of DP and DP-P for alleviating the disease symptoms, i.e., polyuria and polydipsia. A group of three Brattleboro rats were kept separately in three metabolic cages. Their body weight, water intake and urine output were measured every day. DP and DP-P were dissolved in 10% Liposyn® II (Abbott Laboratories, Abbott Park, Ill., USA) and injected subcutaneously (s.c.) to each rat at doses ranging from 0.02 to 20 μg/kg. […] On the other hand, DP-P at the identical dose could maintain the rats symptom-free for more than 3 days, as indicated by the reduction of both water intake and urine output without significant change of the body weight.
In order to evaluate the dose-dependent responses to DP and DP-P in Battleboro rats, the effectiveness of anti-diuretic activity was defined as the length of time that a more than 50% reduction of the urine volume can be maintained in the treated animals.

[4] = tested on: mouse fibroblasts L929 cells; assay: Cellular uptake of HRPssPal; format: cell-based; conditions: 30 μg/ml, serum-free medium, 1 hour, 37° C.
Experimental: Confluent monolayers of mouse fibroblasts L929 cells in 6-well culture cluster plates were incubated in serum-free medium with 30 μg/ml of HRP, either as the native form or as the palmitic acid conjugate (HRPssPal). After 1 hour at 37° C., monolayers were washed three times with PBS and then dissolved in 1 ml of 0.05% of Triton-X100. Cell-associated HRP was determined by measuring the enzymatic activity in each cell extract and the results converted to ng HRP per cell monolayer. […] Therefore, a 30-fold increase in cell uptake was achieved by modification of HRP with Pal-PDC.

[5] = tested on: Caco-2 monolayers; format: in vitro ADME, Human
Experimental: Suspended Caco-2 cells in 1.5 ml of medium were seeded into the apical chamber of the transwells at a density of 0.5 million cells per insert. 2.5 ml of the medium was then added to the basal chambers of each transwell. The cells were allowed to attach for 2 days without disturbance and were then fed every other day until the experiments were performed. The cells were maintained for approximately 14-20 days prior to the experiments and were fed 24 hr before each experiment. The cell monolayers developed a transepithelial electrical resistance (TEER) of approximately 500-600 .OMEGA.) cm^2 within one week of the seeding and maintained this resistance for up to 21 days post-seeding.
Confluent cell monolayers, 2 to 3 weeks old, and having a TEER value of approximately 500 .OMEGA. cm^2, were first incubated with Dulbecco's MEM containing 1% of FBS for 30 min at 37° C. […] At predetermined times, the entire basal chamber medium (2.5 ml) from each transwell was removed and counted for radioactivity using a gamma counter. […] After the 24 hr samples were taken, the cell monolayers were rinsed three times with ice-cold PBS, cut out of the inserts, and counted for accumulated radioactivity using a gamma counter. […]
BBI was modified with 2 or 4 palmitic acids, and the transport was determined in transwells. […]

## CC(C)C[C@H](NC(=O)[C@H](CCCCN)NC(=O)CNC(=O)[C@H](CC(C)C)NC(=O)[C@@H](NC(=O)[C@@H]1CSSC[C@H](N)C(=O)N[C@@H](CO)C(=O)N[C@@H](CC(N)=O)C(=O)N[C@@H](CC(C)C)C(=O)N[C@@H](CO)C(=O)N[C@@H]([C@@H](C)O)C(=O)N1)C(C)C)C(=O)N[C@@H](CO)C(=O)N[C@@H](CCC(N)=O)C(=O)N[C@@H](CCC(=O)O)C(=O)N[C@@H](CC(C)C)C(=O)N[C@@H](Cc1c[nH]cn1)C(=O)N[C@@H](CCCCN)C(=O)N[C@@H](CC(C)C)C(=O)N[C@@H](CCC(N)=O)C(=O)N[C@H](C(=O)N[C@@H](Cc1ccc(O)cc1)C(=O)N1CCC[C@H]1C(=O)N[C@@H](CCCNC(=N)N)C(=O)N[C@H](C(=O)N[C@@H](CC(N)=O)C(=O)N[C@H](C(=O)NCC(=O)N[C@@H](CO)C(=O)NCC(=O)N[C@H](C(=O)N1CCC[C@H]1C(N)=O)[C@@H](C)O)[C@@H](C)O)[C@@H](C)O)[C@@H](C)O [CT, Salmon calcitonin]
[1]
  Plasma clearance: rapid plasma clearance
[2]
  Plasma calcitonin concentration, CT: 9.2 ± 0.7 pg/0.1 ml plasma

## NC(=O)CC[C@@H]1NC(=O)[C@H](Cc2ccccc2)NC(=O)[C@H](Cc2ccc(O)cc2)NC(=O)CCSSC[C@@H](C(=O)N2CCC[C@H]2C(=O)N[C@H](CCCN=C(N)N)C(=O)NCC(N)=O)NC(=O)[C@H](CC(N)=O)NC1=O [DP, Desmopressin]
[3]
  Time rats maintained symptom-free: less than one

## horseradish peroxidase [HRP]
[4]
  Cellular uptake: 7 ng HRP per cell monolayer

B1: BBIssPal(4): BBI modified with 4 palmitic acids (conjugate, UniProt P01055 40-110, looked up)
Bowman-Birk type proteinase …: DDESSKPCCDQCACTKSNPPQCRCSDMRLNSCHSACKSCICALSYPAQCFCVDITDFCYEPCKPSEDDKEN
modifications: 4 palmityl disulfide groups
notes: BBI modified with 4 palmitic acids
[5]
  Internalization of the conjugates into the cells (rank): highest uptake into the cells

Reference: US6093692A, “Method and compositions for lipidization of hydrophilic molecules” (The University of Southern California, priority 1997, dated 2000)
